Legend:
[1] = Pharmacokinetics after a single oral dose in mice; assay type: in vivo, mouse; details: urine, oral 25 mg/kg; for AUC: mouse
[2] = tested on: IFN-γ and IL-6; assay: Splenocyte cytokine production (ELISA); assay type: cell-based, mouse; details: 10 μM, 3 day incubation, culture supernatant
Method: (§1) Male Skh-1:HR1 (hairless) mice, approximately six weeks old were killed by cervical dislocation. Single cell suspensions were made from the spleen and erythrocytes were lysed in buffer (0.14M NH4Cl, 17 mM Tris, pH 7.2). The remaining splenocytes were cultured in RPMI-1640 (Gibco) supplemented with 10% (v:v) FBS, 200 mM L-glutamine, penicillin/streptomycin and […] 2-mercaptoethanol. Splenocytes were added to quadruplicate wells containing either concanavalin A (ConA, Sigma-Aldrich—0.4 μg/well), LPS (Sigma-Aldrich—1 μg/well) or no mitogen, as well 10 μM of test compound in DMSO. Samples were analysed after a 3 day incubation at 37° C. in 5% CO2 in air. Methylthiazoletetrazolium (MTT) is bioreduced by viable cells into a coloured formazan product that is soluble in DMSO. Thus the quantity of formazan product is directly proportional to the number of living cells in culture, and can be measured using a spectrophotometer at 570 nm. MTT was added to each well, incubated for a further 4 hrs and then colour developed with 0.04N HCl in isopropanol. Culture supernatants were stored after collection at −80° C. and both T and B cells analysed by ELISA (BD Biosciences) for IFN-γ (a Th-1 cytokine) and for T cells alone, IL-6 (a Th-2 cytokine).

[3] = tested on: splenocytes (T and B cells); assay: Mitogen-stimulated splenocyte proliferation (MTT); assay type: cell-based, mouse; details: 10 μM, 3 day incubation, ConA or LPS
Method: as §1

[4] = tested on: PGE2; assay: PGE2 synthesis in RA-stimulated U937 cells; assay type: cell-based, human; details: A23187 0.5 μM, 30 min
Method: U937 cells were thawed and resuspended in RPMI and 10% FCS at 2×10^5 cells per ml. The cells were incubated in 5% CO2 at 37° C. and expanded in growing culture to at least 6.4×10^7 total cells. The cells were then resuspended in fresh medium and cultured with 5 μM retinoic acid (RA) at 2×10^5 cells per ml for a further 3 days (72 h). RA treated cells were washed 2× in serum-free RPMI and resuspended in serum-free medium at 5×10^6 cells per ml. The cells were aliquotted into Teflon tubes at 1 ml per tube. Working stock solutions of compounds (1) and (3) were prepared at 0.1 mM, 1 mM and 10 mM as described above. For each working dilution, 10 μl was added to 1 ml cells to achieve a final concentration of 0 (DMSO alone), 1, 10, and 100 μM for each test compound. Cells were incubated in triplicate with each concentration of test compound for 15 min at 37° C. After 15 min pre-incubation, each 1 ml tube of cells received 5 μl of a […] solution of the calcium ionophore A23187 (to achieve 0.5 μM A23187). Incubation at 37° C. was continued for a further 30 min. After incubation, supernatants were collected by centrifugation at 2000 rpm for 10 min and stored at −20° C. until required for assay.

[5] = tested on: VCAM-1; assay: TNFα-induced VCAM-1 expression in HAECs (ELISA); assay type: cell-based, human; details: TNFα-stimulated HAECs, 405 nm
Method: Inhibition of TNFα-stimulated endothelial cell activation was assessed by measuring surface expression of cell adhesion molecules with an ELISA method. Human arterial endothelial cells (HAEC) in growth medium (Cell Applications Inc.) were seeded into 96-well plates at a density of 10,000 cells per well. Plates were incubated overnight at 37° C. in a humidified incubator to allow for cells to become confluent. On the morning of the experiment, TNFα (10 μl, 2 ng/ml) was added to each well, which contained 100 μl of medium. Test compounds were diluted in DMSO-containing medium (2.5% DMSO) to give a concentration of 100 and 300 μM. They were added to wells so that final concentrations were 10 and 30 μM. DMSO-containing medium alone was added to zero concentration control wells. All samples were measured in quadruplicate (4 wells per treatment).
After incubation with a compound of the formula (I), the medium was removed and cells were probed with either non-specific IgG or specific mouse antibodies (VCAM (BD Biosciences −0.1 μg in 100 μL buffered saline with 10% heat-inactivated human serum)).
Adhesion molecule expression was detected by addition of sheep anti-mouse antibody/horseradish peroxidase conjugate. Plates were allowed to stand for 30 minutes—monolayers were then washed, and sheep anti-mouse antibody/horseradish peroxidase conjugate (1:500 in 100 μL HBSS with 10% heat-inactivated human serum and 0.05% Tween 20) was added and left for 30 minutes. After further washing, 150 μL, ABTS substrate (Kirkegaard and Perry Laboratories) was added to each well and allowed to develop for 15 minutes. Optical density was measured at 405 nm with an ELISA reader (Titertek Multiscan, Flow Laboratories).

[6] = tested on: prostacyclin (PGI2); assay: 6-keto PGF1α (prostacyclin) synthesis in IL-1β stimulated HUVECs (RIA); assay type: cell-based, human; details: overnight, mean+SEM, n=3
Method: Cultured human umbilical vein endothelial cells (HUVECs—Vascular Biology Laboratory, Hanson Institute, Adelaide SA) were removed harvested in 0.25% trypsin-EDTA. After quenching and further washing in RPMI-10% FCS, the cells were resuspended in fresh medium at 1-1.5×10^5 cells per ml and plated out in gelatin coated wells at 2 ml per well. After incubation overnight in 5% CO2 at 37° C., the medium was refreshed and the cells returned to the incubator and allowed to equilibrate for approximately 2 h. Test compounds at concentrations of 0, 1, 10 or 100 μM were added to the cells, and 30 minutes later, stimulated by interleukin-1β (IL-1β-10 μl of a 2 ng/ml solution). After overnight incubation at 37° C., supernatants were collected by centrifugation at 2000 rpm for 5 min and stored at −20° C. Production of prostacyclin after overnight incubation was measured by radioimmunoassay (RIA). Because PGI2 is labile in aqueous medium, the stable hydrolysis product 6-keto PGF1α, was measured as a surrogate marker. Results are expressed as mean+SEM, n=3. Differences between means were analysed by one-way ANOVA followed by Tukey's test for multiple comparisons. Differences between means were regarded as significant when p<0.05.

## O=C(O)C1CCCN1Cc1cc2c(cc1O)OCC(c1ccc(O)cc1)=C2 (stereo not drawn) [Compound (3)]
[1]
  AUC: 34 µM·h
  [max]free (μM, mean ± SD): 3.9 ± 2.4 µM
[2]
  Effect on cytokine synthesis (INF-γ, IL-6): did decrease the cytokines produced by T cells in particular
[3]
  Effect on splenocyte (T and B cell) numbers: little effect on cell numbers
[4]; 1 μM
  PGE2: 1.025 ± 0.114 pg
[4]; 10 μM
  PGE2: 1.271 ± 0.212 pg
[4]; 100 μM
  PGE2: 1.39 ± 0.227 pg
[5]; 10 μM
  VCAM-1 expression, Absorbance: 0.161 ± 0.16
[5]; 30 μM
  VCAM-1 expression, Absorbance: 0.215 ± 0.018
[6]; 1 μM
  PGF1α: 0.353 ± 0.045 pg/mL
[6]; 10 μM
  PGF1α (pg/ml): 0.335 ± 0.039^ pg/ml
[6]; 100 μM
  PGF1α: 0.308 ± 0.065 pg/mL

## CN(C)Cc1cc2c(cc1O)OCC(c1ccc(O)cc1)=C2 [Compound (1)]
[1]
  AUC: 9.3 µM·h
  [max]free (μM, mean ± SD): 5.6 ± 6.7 µM
[2]
  Effect on cytokine synthesis (INF-γ, IL-6): concomitant reduction on the synthesis of INF-γ and IL-6
[3]
  Effect on splenocyte (T and B cell) numbers: markedly and significantly immunosuppressive to T cells and to a lesser extent, B cells
[4]; 1 μM
  PGE2: 1.485 ± 0.175 pg
[4]; 10 μM
  PGE2: 1.58 ± 0.145 pg
[4]; 100 μM
  PGE2: 0.881 ± 0.116 pg
[5]; 10 μM
  VCAM-1 expression, Absorbance: 0.164 ± 0.012
[5]; 30 μM
  VCAM-1 expression, Absorbance: 0.208 ± 0.008
[6]; 1 μM
  PGF1α: 0.667 ± 0.088 pg/mL
[6]; 10 μM
  PGF1α: 0.584 ± 0.059 pg/mL
[6]; 100 μM
  PGF1α: 0.277 ± 0.07 pg/mL

Reference: patent publication US20120003270A1, “6-SUBSTITUTED ISOFLAVONOID COMPOUNDS AND USES THEREOF” (priority 2008, published 2012)
